The assay deals with T1, PpGRXC5 (Physcomitrium patens, UniProt A0A2K1KTP0).
T1 construct: gene LOC112280307; targeting peptide removed, starts at Ala120 to native stop; Gateway vector pETG-10A, E. coli Rosetta2; tag not described; active site YCPYC
T1 sequence (A0A2K1KTP0 120-228): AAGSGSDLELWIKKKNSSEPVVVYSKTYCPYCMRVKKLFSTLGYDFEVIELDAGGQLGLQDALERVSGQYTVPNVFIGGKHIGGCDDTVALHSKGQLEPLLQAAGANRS
Nature of the assay: HED assay, GR-coupled NADPH oxidation at […] nm. The class given is biochemical. As to conditions: 0.3-1.5 mM HED varied, 1 mM GSH constant, 200 uM NADPH, yeast GR, 30 nM enzyme, 100 mM Tris-HCl, 1 mM EDTA, pH 7.9; actual substrate is the glutathione-mercaptoethanol mixed disulfide; read-out: Km^app.

What is called Km is the substrate concentration at which the rate is half of its maximum.

`OCCSSCCO` [HED, bis(2-hydroxyethyl)disulfide]: the Km stood at 390 ± 110 µM.

Source of the values: paper PMC10808970, “Chloroplasts lacking class I glutaredoxins are functional but show a delayed recovery of protein cysteinyl redox state after oxidative challenge” (Redox Biology, 2023).
